Data taken from ChEMBL document CHEMBL5463728, “Data for DCP probe BAY-6096” (2023).

How the values were obtained:
[1] = target: T1, Alpha-2B adrenergic receptor (Homo sapiens, UniProt P18089); test: Adrenoceptor Reporter Cell Assay (ADRA2B); type: functional
T1 sequence (P18089 whole entry): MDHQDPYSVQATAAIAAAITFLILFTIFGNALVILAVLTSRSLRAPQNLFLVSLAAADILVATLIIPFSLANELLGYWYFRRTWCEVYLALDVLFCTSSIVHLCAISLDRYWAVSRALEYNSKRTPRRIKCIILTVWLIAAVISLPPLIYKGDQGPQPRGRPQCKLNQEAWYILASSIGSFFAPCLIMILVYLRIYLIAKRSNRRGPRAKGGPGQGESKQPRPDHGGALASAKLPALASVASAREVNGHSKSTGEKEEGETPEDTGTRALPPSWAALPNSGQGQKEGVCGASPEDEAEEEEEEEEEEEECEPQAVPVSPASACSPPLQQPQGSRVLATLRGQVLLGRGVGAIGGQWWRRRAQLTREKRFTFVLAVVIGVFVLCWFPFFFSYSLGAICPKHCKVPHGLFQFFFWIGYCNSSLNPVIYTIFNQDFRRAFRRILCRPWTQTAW

[2] = target: T1, Alpha-2B adrenergic receptor; test: GPCRScan assay: inhibition of Alpha2B; set-up: radioligand conc. used [nm] 1.5 – 2.0, parental cells HEKT
[3] = target: Alpha-2B adrenergic receptor (Homo sapiens) (UniProt P18089); settings: filed as antagonist, Compound concentration 10.0 uM
[4] = target: Insulin receptor (Homo sapiens) (UniProt P06213); settings: Rattus norvegicus; Compound concentration 10.0 uM
[5] = target: Glutamate NMDA receptor (Rattus norvegicus) (UniProt P35439+Q00959+Q00960+Q00961+Q62645+Q8VHN2+Q9R1M7); settings: Compound concentration 10.0 uM
[6] = target: Carbonic anhydrase 2 (Homo sapiens) (UniProt P00918); test: Inhibition of Carbonic Anhydrase II at compound concentration of 10.0 uM in the Eurofins-Panlabs enzyme assay (Eurofins_assay_112020); set-up: substrate with concentration; settings: Compound concentration 10.0 uM
[7] = target: 5-hydroxytryptamine receptor 2B (Homo sapiens) (UniProt P41595); settings: Compound concentration 10.0 uM
Sequence of 5-hydroxytryptamine receptor 2B (Homo sapiens) (P41595 whole entry): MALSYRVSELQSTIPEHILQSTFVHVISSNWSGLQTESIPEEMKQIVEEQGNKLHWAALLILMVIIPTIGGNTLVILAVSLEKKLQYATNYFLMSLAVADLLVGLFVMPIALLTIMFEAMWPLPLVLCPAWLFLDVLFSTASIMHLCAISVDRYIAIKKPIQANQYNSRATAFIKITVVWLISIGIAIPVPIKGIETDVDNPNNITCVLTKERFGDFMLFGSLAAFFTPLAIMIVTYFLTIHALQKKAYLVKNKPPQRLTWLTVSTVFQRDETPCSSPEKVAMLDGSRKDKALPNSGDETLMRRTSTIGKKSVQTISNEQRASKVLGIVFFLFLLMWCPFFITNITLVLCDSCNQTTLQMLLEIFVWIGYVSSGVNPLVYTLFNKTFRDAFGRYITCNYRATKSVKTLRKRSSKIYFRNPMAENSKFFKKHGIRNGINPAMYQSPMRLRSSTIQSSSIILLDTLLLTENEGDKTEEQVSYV

[8] = target: Glutamate receptor ionotropic, kainate (Rattus norvegicus) (UniProt P22756+Q01812+P42260+P42264+Q63273); settings: Compound concentration 10.0 uM
[9] = target: GABA-A receptor; anion channel (Rattus norvegicus) (UniProt O09028+P15431+P18506+P18508+P19969+P20236+P23574+P23576+P28471+P28473+P30191+P62813+P63079+P63138+Q91ZM7+Q9ES14); settings: Compound concentration 10.0 uM
[10] = target: Histamine H2 receptor (Homo sapiens) (UniProt P25021); settings: Compound concentration 10.0 uM
Sequence of Histamine H2 receptor (Homo sapiens) (P25021 whole entry): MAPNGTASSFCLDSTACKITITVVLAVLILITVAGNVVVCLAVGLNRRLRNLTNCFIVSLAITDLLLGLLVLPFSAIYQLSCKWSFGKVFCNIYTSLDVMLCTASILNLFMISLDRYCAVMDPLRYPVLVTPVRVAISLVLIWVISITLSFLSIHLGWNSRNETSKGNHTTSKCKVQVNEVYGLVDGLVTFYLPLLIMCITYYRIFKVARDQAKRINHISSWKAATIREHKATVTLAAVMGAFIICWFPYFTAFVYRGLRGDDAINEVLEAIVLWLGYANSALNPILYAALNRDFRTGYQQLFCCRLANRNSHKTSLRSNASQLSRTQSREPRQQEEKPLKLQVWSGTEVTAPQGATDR

[11] = target: Monoamine oxidase A (MAO-A) (Homo sapiens, UniProt P21397); test: Inhibition of Monoamine Oxidase MAO-A at compound concentration of 10.0 uM in the Eurofins-Panlabs enzyme assay (Eurofins_assay_140010); set-up: substrate with concentration 50 uM Kynuramine, incubation time 60 min, incubation temperature 37 C; settings: recombinant human MAO-A expressed in insect Hi5 cells, probe Kynuramine (50 uM), compound concentration 10 uM
Sequence of Monoamine oxidase A (MAO-A) (P21397 whole entry): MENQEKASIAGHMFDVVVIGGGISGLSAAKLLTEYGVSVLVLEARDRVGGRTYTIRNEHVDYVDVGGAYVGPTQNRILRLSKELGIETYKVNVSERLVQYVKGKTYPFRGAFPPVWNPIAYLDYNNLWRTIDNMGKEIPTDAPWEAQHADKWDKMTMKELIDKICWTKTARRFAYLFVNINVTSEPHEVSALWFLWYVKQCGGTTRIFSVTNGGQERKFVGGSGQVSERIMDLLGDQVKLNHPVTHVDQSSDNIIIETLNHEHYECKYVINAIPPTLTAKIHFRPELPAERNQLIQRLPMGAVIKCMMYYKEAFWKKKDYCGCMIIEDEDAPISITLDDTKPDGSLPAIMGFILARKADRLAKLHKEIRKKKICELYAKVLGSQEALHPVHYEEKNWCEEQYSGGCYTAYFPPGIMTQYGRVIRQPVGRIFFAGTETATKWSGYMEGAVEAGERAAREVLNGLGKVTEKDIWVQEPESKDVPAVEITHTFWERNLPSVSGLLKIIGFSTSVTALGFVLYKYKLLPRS

[12] = target: Adenosine receptor A2a (Homo sapiens) (UniProt P29274); settings: Compound concentration 10.0 uM
[13] = target: Adenosine Transporter (Cavia porcellus) (UniProt H0V4R7+H0UUG1+H0V3Z5); test: Inhibition of Transporter, Adenosine at compound concentration of 10.0 uM in the Eurofins-Panlabs radioligand binding assay (Eurofins_assay_202000); type: protein assay; set-up: ligand concentration 0.5 nM, non-specific ligand with concentration 5 uM Nitrobenzylthioinosine, incubation time 30 min, incubation temperature 25 C; settings: Compound concentration 10.0 uM
[14] = target: Endothelin-1 receptor (Homo sapiens) (UniProt P25101); settings: Compound concentration 10.0 uM
[15] = target: T2, Beta-2 adrenergic receptor (Homo sapiens, UniProt P07550); test: Adrenoceptor reporter cell assay (ADRB2); type: functional
Target sequence in this assay (P07550 whole entry): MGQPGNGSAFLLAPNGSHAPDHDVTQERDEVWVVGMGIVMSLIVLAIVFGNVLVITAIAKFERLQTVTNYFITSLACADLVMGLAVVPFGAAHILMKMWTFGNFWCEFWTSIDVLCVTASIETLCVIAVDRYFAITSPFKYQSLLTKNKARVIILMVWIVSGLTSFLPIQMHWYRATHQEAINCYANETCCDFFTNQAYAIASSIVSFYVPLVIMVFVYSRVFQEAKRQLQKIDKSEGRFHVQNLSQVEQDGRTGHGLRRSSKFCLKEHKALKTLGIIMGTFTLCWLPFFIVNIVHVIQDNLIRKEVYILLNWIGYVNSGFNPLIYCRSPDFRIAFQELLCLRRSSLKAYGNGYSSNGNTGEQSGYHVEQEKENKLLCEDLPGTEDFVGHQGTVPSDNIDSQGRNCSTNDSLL

[16] = target: Beta-1 adrenergic receptor (Homo sapiens, UniProt P08588); test: Adrenoceptor reporter cell assay (ADRB1); type: functional
Sequence of Beta-1 adrenergic receptor (P08588 whole entry): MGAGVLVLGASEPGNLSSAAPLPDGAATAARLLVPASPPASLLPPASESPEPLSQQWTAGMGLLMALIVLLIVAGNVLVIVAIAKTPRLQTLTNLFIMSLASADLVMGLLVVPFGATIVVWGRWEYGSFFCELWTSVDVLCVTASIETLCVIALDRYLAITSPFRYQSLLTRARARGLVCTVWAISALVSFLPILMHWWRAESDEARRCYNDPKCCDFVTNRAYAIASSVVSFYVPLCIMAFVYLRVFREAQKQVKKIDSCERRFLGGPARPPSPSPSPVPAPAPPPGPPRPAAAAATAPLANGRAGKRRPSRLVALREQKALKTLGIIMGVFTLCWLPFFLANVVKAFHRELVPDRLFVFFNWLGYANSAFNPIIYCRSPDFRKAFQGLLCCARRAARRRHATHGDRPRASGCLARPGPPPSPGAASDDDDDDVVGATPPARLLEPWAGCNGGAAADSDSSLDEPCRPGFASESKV

[17] = target: Monoamine oxidase B (MAO-B) (Homo sapiens, UniProt P27338); test: Inhibition of Monoamine Oxidase MAO-B at compound concentration of 10.0 uM in the Eurofins-Panlabs enzyme assay (Eurofins_assay_140120); set-up: substrate with concentration 50 uM Kynuramine, incubation time 60 min, incubation temperature 37 C; settings: recombinant human MAO-B expressed in insect Hi5 cells, probe Kynuramine (50 uM), compound concentration 10 uM
Sequence of Monoamine oxidase B (MAO-B) (P27338 whole entry): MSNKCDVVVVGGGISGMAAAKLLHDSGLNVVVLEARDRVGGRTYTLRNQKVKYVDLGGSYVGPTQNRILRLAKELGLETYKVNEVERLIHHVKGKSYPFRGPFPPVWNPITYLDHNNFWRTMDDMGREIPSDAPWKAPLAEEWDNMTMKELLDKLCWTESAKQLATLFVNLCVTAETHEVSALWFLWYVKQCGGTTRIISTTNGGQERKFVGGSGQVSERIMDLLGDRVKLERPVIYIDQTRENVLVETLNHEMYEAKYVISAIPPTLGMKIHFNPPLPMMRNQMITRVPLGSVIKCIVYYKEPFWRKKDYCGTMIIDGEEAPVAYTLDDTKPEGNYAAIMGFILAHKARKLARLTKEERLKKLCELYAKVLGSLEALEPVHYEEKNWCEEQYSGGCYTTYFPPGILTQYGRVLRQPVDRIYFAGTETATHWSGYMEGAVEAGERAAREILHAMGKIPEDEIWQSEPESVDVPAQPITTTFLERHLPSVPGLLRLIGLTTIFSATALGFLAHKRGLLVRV

[18] = target: D(2) dopamine receptor (Homo sapiens, UniProt P14416); settings: Compound concentration 10.0 uM
[19] = target: Alpha-1B adrenergic receptor (Homo sapiens, UniProt P35368); test: Adrenoceptor reporter cell assay (ADRA1B); type: functional
[20] = target: B2 bradykinin receptor (Homo sapiens) (UniProt P30411); settings: Compound concentration 10.0 uM
Sequence of B2 bradykinin receptor (Homo sapiens) (P30411 whole entry): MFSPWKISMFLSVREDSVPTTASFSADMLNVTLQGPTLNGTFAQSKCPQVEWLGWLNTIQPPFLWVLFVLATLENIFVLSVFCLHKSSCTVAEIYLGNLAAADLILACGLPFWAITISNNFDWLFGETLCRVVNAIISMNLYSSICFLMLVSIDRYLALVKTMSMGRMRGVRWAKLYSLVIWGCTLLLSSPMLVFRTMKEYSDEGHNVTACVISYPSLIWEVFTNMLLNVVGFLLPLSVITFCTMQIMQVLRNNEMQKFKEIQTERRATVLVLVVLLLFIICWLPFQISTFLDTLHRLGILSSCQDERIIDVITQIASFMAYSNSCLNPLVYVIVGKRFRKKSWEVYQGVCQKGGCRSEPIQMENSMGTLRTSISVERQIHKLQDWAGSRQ

[21] = target: Aldo-keto reductase family 1 member B1 (Rattus norvegicus) (UniProt P07943); test: Inhibition of Aldose Reductase at compound concentration of 10.0 uM in the Eurofins-Panlabs enzyme assay (Eurofins_assay_107000); set-up: substrate with concentration; settings: Compound concentration 10.0 uM
[22] = target: T2, Beta-2 adrenergic receptor; settings: Compound concentration 10.0 uM
Target sequence in this assay (P07550 whole entry, looked up): as the sequence (P07550 whole entry) above

[23] = target: Muscarinic acetylcholine receptor M3 (Homo sapiens) (UniProt P20309); settings: Compound concentration 10.0 uM
Sequence of Muscarinic acetylcholine receptor M3 (Homo sapiens) (P20309 whole entry, looked up): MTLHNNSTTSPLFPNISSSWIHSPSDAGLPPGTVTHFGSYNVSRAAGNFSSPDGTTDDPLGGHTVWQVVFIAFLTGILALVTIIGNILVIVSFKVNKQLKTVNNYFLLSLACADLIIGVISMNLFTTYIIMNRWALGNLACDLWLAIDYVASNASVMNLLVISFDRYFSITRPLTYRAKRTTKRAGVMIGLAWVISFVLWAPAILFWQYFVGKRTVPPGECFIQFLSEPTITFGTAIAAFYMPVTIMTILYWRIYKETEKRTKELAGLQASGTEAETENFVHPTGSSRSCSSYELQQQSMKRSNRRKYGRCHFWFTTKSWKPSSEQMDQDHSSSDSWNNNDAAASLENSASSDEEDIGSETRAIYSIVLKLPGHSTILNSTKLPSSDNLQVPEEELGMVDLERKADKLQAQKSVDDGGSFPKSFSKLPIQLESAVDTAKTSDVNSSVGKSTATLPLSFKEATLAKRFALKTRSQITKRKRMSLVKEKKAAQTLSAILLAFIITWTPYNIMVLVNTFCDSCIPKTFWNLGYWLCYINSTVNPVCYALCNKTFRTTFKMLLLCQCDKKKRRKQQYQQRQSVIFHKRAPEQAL

[24] = target: Type-1 angiotensin II receptor (Homo sapiens) (UniProt P30556); settings: Compound concentration 10.0 uM
Sequence of Type-1 angiotensin II receptor (Homo sapiens) (P30556 whole entry): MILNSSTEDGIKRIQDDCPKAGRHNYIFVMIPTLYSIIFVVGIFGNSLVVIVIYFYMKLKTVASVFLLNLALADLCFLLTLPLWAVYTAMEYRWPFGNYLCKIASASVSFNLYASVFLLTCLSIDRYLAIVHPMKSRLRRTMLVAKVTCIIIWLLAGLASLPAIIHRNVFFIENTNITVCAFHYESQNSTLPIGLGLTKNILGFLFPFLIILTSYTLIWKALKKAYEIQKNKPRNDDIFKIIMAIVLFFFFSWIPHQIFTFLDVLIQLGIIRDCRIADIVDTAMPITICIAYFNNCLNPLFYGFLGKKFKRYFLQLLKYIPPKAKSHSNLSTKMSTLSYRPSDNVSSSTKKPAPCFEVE

[25] = target: Mu-type opioid receptor (Homo sapiens) (UniProt P35372); settings: Compound concentration 10.0 uM
[26] = target: Endothelin receptor type B (Homo sapiens) (UniProt P24530); settings: Compound concentration 10.0 uM
Sequence of Endothelin receptor type B (Homo sapiens) (P24530 whole entry): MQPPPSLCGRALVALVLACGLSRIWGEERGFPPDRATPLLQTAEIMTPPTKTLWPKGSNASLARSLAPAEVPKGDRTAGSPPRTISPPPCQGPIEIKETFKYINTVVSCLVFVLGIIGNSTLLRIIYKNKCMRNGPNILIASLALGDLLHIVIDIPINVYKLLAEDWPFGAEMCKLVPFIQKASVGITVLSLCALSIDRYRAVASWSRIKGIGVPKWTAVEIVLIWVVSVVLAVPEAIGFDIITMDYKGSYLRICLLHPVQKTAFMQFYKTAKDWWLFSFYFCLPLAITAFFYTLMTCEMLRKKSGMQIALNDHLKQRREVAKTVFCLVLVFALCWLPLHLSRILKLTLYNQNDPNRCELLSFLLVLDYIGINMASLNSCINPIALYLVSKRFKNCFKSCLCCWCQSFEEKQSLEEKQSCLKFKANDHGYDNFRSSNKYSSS

[27] = target: T3, 5-hydroxytryptamine receptor 1A (Homo sapiens) (UniProt P08908); settings: Compound concentration 10.0 uM
T3 sequence (whole entry): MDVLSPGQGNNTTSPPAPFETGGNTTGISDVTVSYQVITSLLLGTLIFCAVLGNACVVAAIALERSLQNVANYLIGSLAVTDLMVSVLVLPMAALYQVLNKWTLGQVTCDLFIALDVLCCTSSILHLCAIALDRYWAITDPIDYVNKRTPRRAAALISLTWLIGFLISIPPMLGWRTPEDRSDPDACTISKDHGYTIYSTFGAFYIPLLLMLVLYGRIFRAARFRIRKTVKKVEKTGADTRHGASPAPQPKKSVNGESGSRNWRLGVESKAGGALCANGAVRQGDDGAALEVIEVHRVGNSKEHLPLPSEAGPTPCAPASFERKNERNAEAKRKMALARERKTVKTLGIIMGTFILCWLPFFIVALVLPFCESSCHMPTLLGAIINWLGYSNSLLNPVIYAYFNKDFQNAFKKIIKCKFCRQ

[28] = species: Rattus norvegicus; settings: Compound concentration 10.0 uM
[29] = target: Progesterone receptor (Homo sapiens) (UniProt P06401); settings: Compound concentration 10.0 uM

Cc1noc(C)c1-c1cnc2cc(C(=O)NCCC[n+]3ccc(N(C)C)cc3)ccn12
IC50 [1]: 7.1 µM (not active) | Ki ([2]; read-out: Ki): 2.76 µM | Ki ([2]; read-out: pKi (converted)): 2.51 µM | inhibition [3]: 54.6%

CNc1cc[n+](CCNC(=O)c2ccn3c(-c4c(C)noc4C)cnc3c2)cc1
inhibition [4]: -3.4% | inhibition [5]: 4% | inhibition [6]: 3% | inhibition [7]: 0% | inhibition [8]: 0.2% | inhibition [9]: -3.7% | inhibition [10]: -0.4% | inhibition at 60 min, 10 µM [11]: -13.8% (not active) | inhibition [12]: -8.3% | inhibition [13]: -2.2% | inhibition [14]: -2.2% | IC50 [15]: > 10 µM (not active) | IC50 [16]: > 10 µM (not active) | inhibition at 60 min, 10 µM [17]: 6% (not active) | inhibition [18]: -5.2% | IC50 [19]: > 10 µM (not active) | inhibition [20]: -1.8% | inhibition [21]: -1.7% | inhibition [22]: -4.49% | inhibition [23]: -0.2% | inhibition [24]: 5% | inhibition [25]: 0.1% | inhibition [26]: -2.3% | inhibition [27]: 25.3% | inhibition [28]: 4.24% | inhibition [29]: 11.8%
